The IC50 is the midpoint of a concentration-inhibition curve.

The target in one data set is protease (Hepatitis C virus genotype 1a, UniProt P27958). Conditions: protease assay; reported in the literature; read-out: IC50 in in vitro Assays; cited from earlier work.
Data set [1] deals with NS5A-augmented IRES-mediated translation. The data set can be described thus: Bicistronic HCV IRES reporter assay (Firefly/Renilla luciferase). Conditions: for effect of peptide treatment on NS5A-augmented IRES-mediated translation: cells treated with peptide and transfected with reporter construct and NS5A or GFP. The format is cell-based, Hepatitis C virus. The text has this:
FIG. 5A: Schematic of the bicistronic reporter construct used to measure IRESmediated translation. Firefly luciferase (FLuc) and Renilla luciferase (RLuc) are driven by HCV IRES and a 5′ cap, respectively. Each reporter has a stop codon to allow independent expression. Firefly to Renilla ratios are used to follow changes in levels of IRES-mediated translation. For all experiments, the IRES reporter, either NS5A or GFP, and a peptide construct (if indicated) were transfected into cells.
293T cells were transfected with HCV IRES reporter plasmid; either pMSCV5AFLAG or pMSCVGFP; and pCCL-CMV-IRES-EGFP plasmid expressing one of the following peptides: C34, NS5A domain II peptide, NS5A domain III peptide, NS3 peptide, or one of the C34 mutagenesis peptides. All transfections were done using Fugene 6 (Roche, 11814443001). 48 hours post transfection, Renilla and Firefly luciferase activity was determined using Dual Luciferase Assay System (Promega, E1910).
After identifying the C-terminal region of NS5A as the HSP70 binding site in vitro, we sought to determine whether this region has any functional significance. NS5A has been reported to increase IRES-mediated translation in a cell culture-based bicistronic reporter system (He et al. (2003) J. General Virol., 84: 535-543) (FIG. 5A). This reporter system consists of the Firefly luciferase open reading frame (ORF) driven by HCV IRES and Renilla luciferase ORF under the control of a 5′ cap (FIG. 5A). The ratio of Firefly to Renilla luciferase activity can be used to measure the levels of IRES-mediated translation. The C-terminal 34 amino acid peptide corresponding to amino acids 165-198 of NSSA domain I (hereafter referred to as C34) was tested for its effect on altering IRES-mediated translation. […]
We also assessed the impact of the HCV4 peptide on NS5A-augmented IRES-mediated translation. […]
On the technique in general: Reporter assays use an easily measured gene product as a stand-in for the process of interest.

The test system of a further data set is Huh-7.5 cells. The protocol: (§1) Huh-7.5 cells were transfected with the indicated peptide construct and 48 hours later infected with the reporter virus for three hours. Cells were harvested 24 hours post infection, and Renilla activity was measured. All Renilla values were normalized to GFP transfection. […] Huh-7.5 cells were treated with the indicated concentrations of HCV4 or the arginine tag control peptide and immediately infected with the Renilla reporter virus for three hours. Cells were assayed 24 hours post infection for Renilla activity. ‘Percent protection’ refers to the percentage of decrease in Renilla levels compared with no peptide treatment.
Cell viability was determined using MTT Cell Proliferation assay (ATCC, 30-1010K).
(§2) Two cysteine residues were added to each end to allow for disulfide bond formation and to achieve a conformation similar to the C34 hairpin. Also an arginine tag was added to the N-terminal cysteine to allow for efficient uptake by cells without any transfection reagent. Huh-7.5 cells were treated with concentrations of HCV4 peptide ranging from 100 μM to 10 pM in the HCVcc system and were immediately infected with the HCV Renilla reporter virus.

The conditions of data set [2]: primer extension; reported in the literature; read-out: IC50 in in vitro Assays; cited from earlier work.
For a further data set, the system named is replicon. To be noted: reported in the literature, read-out: IC50 in Cell Culture; cited from earlier work.
In data set [3] the test system is HCV Renilla reporter virus. The protocol:
as §1
pNRLFC was in vitro transcribed, and the purified RNA was electroporated into Huh-7.5 cells to generate infectious viral supernatant as previously described (Arumugaswami et al. (2008) PLoS Pathogens, 4: e1000182). Viral assays were done using the HCV reporter virus as described previously (Gonzalez et al. (2009) Hepatology50: 1756-1764).
as §2

The next data set addresses polymerase (Hepatitis C virus genotype 1a, UniProt P27958). To be noted: polymerase assay; reported in the literature; read-out: IC50 in in vitro Assays; cited from earlier work.
In data set [4] the test system is NS5A-augmented IRES-mediated translation. Conditions: previously shown (Gonzalez et al. 2009); cited from earlier work.
The test system of the next data set is HCV. To be noted: previously shown (Gonzalez et al. 2009); cited from earlier work.

Entries after “also recorded” stand apart in the source; their conditions may differ. Where two headings read alike, the source gives them in different places. Bridge positions count the residues as written; N and C are the ends. Square brackets hold non-standard residues; d marks the D form. Peptide text beside a SMILES is read from it. Cha = N[C@@H](CC1CCCCC1)C(=O)O; Ahx = NCCCCCC(=O)O

Sequence of polymerase (P27958 2421-3011): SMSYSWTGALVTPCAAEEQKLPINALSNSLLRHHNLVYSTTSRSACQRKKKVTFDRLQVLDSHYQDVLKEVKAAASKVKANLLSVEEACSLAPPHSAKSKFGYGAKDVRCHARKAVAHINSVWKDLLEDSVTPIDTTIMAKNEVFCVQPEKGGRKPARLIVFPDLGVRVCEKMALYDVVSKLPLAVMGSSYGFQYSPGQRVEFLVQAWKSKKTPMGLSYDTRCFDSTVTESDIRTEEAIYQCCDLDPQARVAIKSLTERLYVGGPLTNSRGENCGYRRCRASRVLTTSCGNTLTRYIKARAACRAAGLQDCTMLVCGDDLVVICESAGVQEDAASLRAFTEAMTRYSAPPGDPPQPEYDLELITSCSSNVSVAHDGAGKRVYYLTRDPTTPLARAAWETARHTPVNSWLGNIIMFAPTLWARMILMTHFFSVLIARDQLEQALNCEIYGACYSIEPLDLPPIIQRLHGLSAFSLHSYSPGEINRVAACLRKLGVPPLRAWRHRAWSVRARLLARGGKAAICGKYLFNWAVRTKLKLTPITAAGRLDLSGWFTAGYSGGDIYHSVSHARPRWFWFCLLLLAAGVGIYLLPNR
Sequence of protease (P27958 1027-1657 limits assumed): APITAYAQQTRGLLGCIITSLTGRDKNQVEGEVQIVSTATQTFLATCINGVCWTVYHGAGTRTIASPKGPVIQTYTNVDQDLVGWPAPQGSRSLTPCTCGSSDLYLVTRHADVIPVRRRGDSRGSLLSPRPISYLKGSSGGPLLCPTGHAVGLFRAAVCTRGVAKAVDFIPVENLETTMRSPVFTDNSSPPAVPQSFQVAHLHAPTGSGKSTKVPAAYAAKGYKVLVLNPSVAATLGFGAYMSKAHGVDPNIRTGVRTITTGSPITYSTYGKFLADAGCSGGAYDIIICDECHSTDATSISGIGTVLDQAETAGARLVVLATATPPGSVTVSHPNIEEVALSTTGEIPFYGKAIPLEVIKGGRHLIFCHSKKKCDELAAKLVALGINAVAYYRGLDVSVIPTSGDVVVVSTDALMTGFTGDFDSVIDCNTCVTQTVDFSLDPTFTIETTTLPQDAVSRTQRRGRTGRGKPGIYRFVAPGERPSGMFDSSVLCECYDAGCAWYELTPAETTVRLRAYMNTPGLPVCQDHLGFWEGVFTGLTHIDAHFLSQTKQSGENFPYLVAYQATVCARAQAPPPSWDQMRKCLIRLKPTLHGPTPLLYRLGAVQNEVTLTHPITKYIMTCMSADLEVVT
Sequence of protease (P27958 1658-1711 partner limits assumed): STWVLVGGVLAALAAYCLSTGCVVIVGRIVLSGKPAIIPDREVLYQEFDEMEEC

Regarding `COc1ccc2c(O[C@@H]3C[C@H]4C(=O)N[C@]5(C(=O)NS(=O)(=O)C6CC6)C[C@H]5/C=C\CCCCN(C)C(=O)[C@@H]4C3)cc(-c3nc(C(C)C)cs3)nc2c1C` [TMC435], the IC50 at protease was 13 nM. On to “LREEVSFRVGLHEYPVGSQLPCEP EPDVAVLTSM [C34]”, for which, in data set [1] (293T cells transfected with IRES reporter, NS5A or GFP, and peptide construct, 48 hours post transfection), the “effect of expressed peptide on NS5A-augmented IRES-mediated translation” value was “block; also recorded: suppresses”. The “cell viability by MTT on peptide expression” value with Huh-7.5 cells (expressed from construct, data not shown) was “no effect”. `CCc1cc(CC[C@]2(C3CCCC3)CC(O)=C(Cc3nc4nc(C)cc(C)n4n3)C(=O)O2)cc(CC)n1` [Filibuvir]: the IC50 in data set [2] is 50 nM. Take `C=C[C@@H]1C[C@]1(NC(=O)[C@@H]1C[C@@H](Oc2cc(-c3csc(NC(=O)C(C)C)n3)nc3c(Br)c(OC)ccc23)CN1C(=O)[C@@H](NC(=O)OC1CCCC1)C(C)(C)C)C(=O)O` [Bl 201335]: the IC50 in the data set on replicon is 3.1 to 50 nM. Take `C/C=C/C[C@@H](C)[C@@H](O)[C@H]1C(=O)N[C@@H](CC)C(=O)N(C)[C@H](SCCN(C)C)C(=O)N(C)[C@@H](CC(C)(C)O)C(=O)N[C@@H](C(C)C)C(=O)N(C)[C@@H](CC(C)C)C(=O)N[C@@H](C)C(=O)N[C@H](C)C(=O)N(C)[C@@H](CC(C)C)C(=O)N(C)[C@@H](CC(C)C)C(=O)N(C)[C@@H](C(C)C)C(=O)N1C` [SCY-635]: in the data set with replicon, the IC50 is 140 nM.

For “R-(Ahx-R)6—CONH2 [arginine tag control peptide, reference compound]”, the “effect of peptide treatment on NS5A-augmented IRES-mediated translation” value in data set [1] was “fail to produce similar results”. Moreover, the “effect on intracellular viral protein production” value in data set [3] (peptide added to Huh-7.5 cells without transfection reagent, immediately infected with Renilla reporter virus, assayed 24 hours post infection) was “did not show any effect”. Consider `CC[C@@H]1C[C@]1(NC(=O)[C@@H]1C[C@@H]2CN1C(=O)[C@H](C(C)(C)C)NC(=O)OCC(C)(C)CCCCc1cccc3c1CN(C3)C(=O)O2)C(=O)NS(=O)(=O)C1CC1` [MK-7009, Vaniprevir], for which the half-maximal inhibitory concentration (IC50) in the data set on replicon was 5 to 15 nM.

For the compound `CC(C)(C)OC(=O)N[C@H]1CCCCC/C=C\[C@@H]2C[C@@]2(C(=O)NS(=O)(=O)C2CC2)NC(=O)[C@@H]2C[C@@H](OC(=O)N3Cc4cccc(F)c4C3)CN2C1=O` [ITMN-191, Da noprevir], in the data set on replicon, the IC50 was 1.8 nM. Consider `CC(C)[C@@H]1NC(=O)[C@H](CCCNC(=N)N)NC(=O)[C@H](Cc2ccccc2)NC(=O)[C@H](CO)NC(=O)[C@@H](NC(=O)CCCCCNC(=O)CCCCCNC(=O)[C@H](CCCNC(=N)N)NC(=O)CCCCCNC(=O)[C@H](CCCNC(=N)N)NC(=O)CCCCCNC(=O)[C@H](CCCNC(=N)N)NC(=O)CCCCCNC(=O)[C@H](CCCNC(=N)N)NC(=O)CCCCCNC(=O)[C@H](CCCNC(=N)N)NC(=O)CCCCCNC(=O)[C@H](CCCNC(=N)N)NC(=O)CCCCCNC(=O)[C@@H](N)CCCNC(=N)N)CSSC[C@@H](C(N)=O)NC(=O)[C@@H]2CCCN2C(=O)[C@H](Cc2ccc(O)cc2)NC(=O)[C@H](CCC(=O)O)NC(=O)[C@H](Cc2c[nH]cn2)NC(=O)[C@H](CC2CCCCC2)NC(=O)[C@H]2CCCN2C1=O` [HCV4, Arg-(Ahx-Arg)6-Ahx-Ahx-Cys-Ser-Phe-Arg-Val-(D)Pro-Cha-His-Glu-Tyr-Pro-Cys] (H-R[Ahx]R[Ahx]R[Ahx]R[Ahx]R[Ahx]R[Ahx]R[Ahx][Ahx]CSFRV[dP][Cha]HEYPC-NH2; disulfide 16-27; N-terminus assumed), for which the “effect of peptide treatment on NS5A-augmented IRES-mediated translation” value in [1] is on record as “blocks”. For the same compound, the MTT toxicity entry in the data set with Huh-7.5 cells (10 μM) is “slight toxicity”; in the data set on Huh-7.5 cells (100 μM) it was “toxicity”; in the data set with Huh-7.5 cells (any concentration lower than 10 μM), “no cytotoxicity”. The IC50 was 0.542 nM in data set [3] (read-out: IC50 in Cell Culture, reporter virus) and ~0.5 nM in data set [3] (read-out: estimated IC50, intracellular viral protein production, Huh-7.5 cells treated with peptide 100 μM to 10 pM, immediately infected with HCV Renilla reporter virus, Renilla activity 24 hours post infection). In the case of `Fc1ccccc1-c1nc2ccn(Cc3ccc(-c4ccc(C(F)(F)F)cc4C(F)(F)F)nn3)cc-2n1` [GS-9190, Tegobuvir], the IC50 on polymerase was > 71000 nM. In the case of `CC(C)C(=O)OC[C@H]1O[C@@H](n2ccc(N)nc2=O)[C@](C)(F)[C@@H]1OC(=O)C(C)C` [R7128 (PSI-6130)], the IC50 with replicon was 600 nM.

In the case of `O=c1c(O)c(-c2ccc(O)c(O)c2)oc2cc(O)cc(O)c12` [Quercetin], in data set [4], the “effect on NS5A-augmented IRES-mediated translation” value was “blocked”. For the same compound, the “effect on virus production” value in the data set on HCV was “blocked”.
